# Assay results from ChEMBL document CHEMBL4814021, “Synthesis, biological evaluation, and correlation of cytotoxicity versus redox potential of 1,4-naphthoquinone derivatives” (Bioorg Med Chem Lett, 2021).
# Assays:
# KB = test: Cytotoxicity against human KB cells; format: functional, cell-based
# HeLa = test: Cytotoxicity against human HeLa cells; format: functional, cell-based
# [1] = Redox potential of compound in phosphate buffer at pH 7.2 by cyclic voltammetry; format: physicochemical
# DNA topoisomerase 1 = target: T1, DNA topoisomerase 1 (Homo sapiens, UniProt P11387); test: Inhibition of DNA topoisomerase 1 (unknown origin)
# T1 sequence (P11387 whole entry): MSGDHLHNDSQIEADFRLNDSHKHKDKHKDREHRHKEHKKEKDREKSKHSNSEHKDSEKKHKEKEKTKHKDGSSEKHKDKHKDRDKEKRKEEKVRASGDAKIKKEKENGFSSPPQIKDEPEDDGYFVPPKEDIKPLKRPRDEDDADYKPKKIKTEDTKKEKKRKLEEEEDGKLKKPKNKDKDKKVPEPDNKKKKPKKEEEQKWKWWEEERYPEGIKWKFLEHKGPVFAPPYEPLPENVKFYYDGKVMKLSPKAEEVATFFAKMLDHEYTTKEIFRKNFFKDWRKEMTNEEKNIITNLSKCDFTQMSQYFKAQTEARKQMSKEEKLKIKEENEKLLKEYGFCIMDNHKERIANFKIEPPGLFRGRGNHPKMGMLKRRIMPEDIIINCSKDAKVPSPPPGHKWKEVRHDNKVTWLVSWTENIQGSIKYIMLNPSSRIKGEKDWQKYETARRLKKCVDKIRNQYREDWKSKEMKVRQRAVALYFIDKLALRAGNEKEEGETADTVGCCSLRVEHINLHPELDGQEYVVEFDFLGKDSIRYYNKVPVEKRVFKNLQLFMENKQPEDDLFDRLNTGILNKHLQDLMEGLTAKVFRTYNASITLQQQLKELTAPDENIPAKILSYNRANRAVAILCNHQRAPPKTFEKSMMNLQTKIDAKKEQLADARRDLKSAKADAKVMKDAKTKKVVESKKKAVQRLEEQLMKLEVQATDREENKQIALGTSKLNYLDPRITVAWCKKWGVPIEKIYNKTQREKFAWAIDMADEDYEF
Compound,IC50 (KB) [µM],IC50 (HeLa) [µM],Activity [1] [V],IC50 (DNA topoisomerase 1) [µM]
CC(=O)Oc1cccc2c1C(=O)C=CC2=O,1.39,6.48,-0.208,–
Cc1ccc(S(=O)(=O)OC2=CC(=O)c3ccccc3C2=O)cc1,18.8,12.2,-0.165,–
CS(=O)(=O)Oc1ccc2c(c1)C(=O)C=CC2=O,11.6,17.7,-0.15,–
COc1ccc2c(c1)C(=O)C=CC2=O,33.9,22.7,-0.196,–
O=C(Oc1ccc2c(c1)C(=O)C=CC2=O)c1cccs1,18.3,8.86,-0.166,> 100
O=C1C=CC(=O)c2cc(OCc3ccccc3)ccc21,26.2,16.8,-0.207,53.7
O=C1C=CC(=O)c2c(O)cccc21 [JUGLONE],6.55,15.7,-0.204,8.26
Cc1ccc(S(=O)(=O)Oc2ccc3c(c2)C(=O)C=CC3=O)cc1,16.4,15.1,-0.154,> 100
O=C1C=CC(=O)c2c(OCc3ccccc3)cccc21,8.48,13.8,-0.16,–
CCOC1=CC(=O)c2ccccc2C1=O,16.9,23.8,-0.304,–
O=C(Oc1cccc2c1C(=O)C=CC2=O)c1cccs1,6.23,5.21,-0.212,> 100
O=C(Oc1cccc2c1C(=O)C=CC2=O)c1ccccc1,6.47,13,-0.208,90.6
Cc1ccc(S(=O)(=O)Oc2cccc3c2C(=O)C=CC3=O)cc1,10.7,9.47,-0.151,–
O=C(OC1=CC(=O)c2ccccc2C1=O)c1ccccc1,36.9,55,-0.368,–
COc1cccc2c1C(=O)C=CC2=O,23.8,21.7,-0.165,48
O=C1C=C(Oc2ccco2)C(=O)c2ccccc21,53.4,37,-0.395,–
O=C(Oc1ccc2c(c1)C(=O)C=CC2=O)c1ccccc1,12.1,19.2,-0.174,–

Compound,IC50 (KB) [µM],IC50 (HeLa) [µM],Activity [1] [V],IC50 (DNA topoisomerase 1) [µM]
"COC1=CC(=O)c2ccccc2C1=O [2-Methoxy-1,4-naphthoquinone]",17.3,29.8,-0.305,–
O=C(Oc1cccc2c1C(=O)C=CC2=O)c1ccco1,13.4,12.5,-0.213,–
CC(=O)Oc1ccc2c(c1)C(=O)C=CC2=O,22.1,27.7,-0.18,> 100
O=C1C=CC(=O)c2cc(O)ccc21,13.3,7.06,-0.192,–
O=C(Oc1ccc2c(c1)C(=O)C=CC2=O)c1ccco1,15.8,17.2,-0.16,> 100
CS(=O)(=O)OC1=CC(=O)c2ccccc2C1=O,7.18,7.61,-0.146,–
O=C1C=C(O)C(=O)c2ccccc21 [LAWSONE],105,71.3,-0.431,–
CS(=O)(=O)Oc1cccc2c1C(=O)C=CC2=O,27.1,23.6,-0.158,> 100
CCOc1ccc2c(c1)C(=O)C=CC2=O,21.4,25.1,-0.197,–
CCCCOC1=CC(=O)c2ccccc2C1=O,27,35.3,-0.305,–
CCCOC1=CC(=O)c2ccccc2C1=O,49.4,51.6,-0.32,–
C/C=C/C(=O)OC1=CC(=O)c2ccccc2C1=O,64.2,37.9,-0.413,–
CC1=CC(=O)c2c(O)cccc2C1=O [PLUMBAGIN],9.83,10.2,-0.346,–
O=C(OC1=CC(=O)c2ccccc2C1=O)c1cccs1,41.5,35.3,-0.413,–
C=CCOc1ccc2c(c1)C(=O)C=CC2=O,10.2,27.2,-0.194,–
CC(=O)OC1=CC(=O)c2ccccc2C1=O,38.8,62.1,-0.416,–
